Data published in patent publication US20250295732A1, “COMPOSITIONS AND METHODS FOR ACTIVATING INNATE IMMUNITY” (Zoetis Services LLC, priority 2021, published 2025).

Columns and labels:
[1] = tested on: bovine monocyte-derived macrophages; assay: ChIP-Seq for H3K27ac; format: cell-based; conditions: after CATH2 exposure and 3-day rest, pre-LPS; vs vehicle
Source text: Peripheral blood mononuclear cells (PBMC) were isolated from bovine blood using ficoll gradients. Bovine monocytes were isolated from PBMC using magnetic assisted cell sorting to positively select for CD14+ cells using anti-human CD14 microbeads (Miltenyi Biotec). Purified bovine blood CD14+ monocytes were differentiated into macrophages using an M2-skewing differentiation factor (recombinant bovine M-CSF) over 7 days then exposed to CATH2 or a vehicle control in the presence of bovine casein to mimic aspects of the mammary gland for 24 hr. Following treatment, vehicle and drug were removed and cells were washed to eliminate residual drug and monocyte-derived macrophages were rested for 3 days in order to assess reprogramming. Following the rest period, a subset of vehicle- and CATH2-trained monocyte-derived macrophages were assessed for epigenetic and transcriptomic changes. The remaining cells were challenged with LPS or E. coli bioparticle labeled with pH-sensitive pHrodo green dye and key parameters for macrophage activation/immune response were assessed including glycolytic activity, surface marker expression, gene expression, cytokine production, phagocytosis, reactive nitrogen species production, and miRNA profiling. […]

[2] = tested on: bovine monocyte-derived macrophages; assay: mRNASeq transcriptome analysis; format: cell-based; conditions: for Number of significantly differentially expressed genes, P < 0.01 & |log2FC| > 1 / Number of significantly differentially expressed genes, P < 0.05 & |log2FC| > 1 / Number of significantly differentially expressed genes, Padj < 0.05 & |log2FC| > 0.585 / Number of significantly differentially expressed genes, Padj < 0.05 & |log2FC| > 1 / Number of significantly differentially expressed genes, Padj < 0.1 & |log2FC| > 1: CATH2_vs_vehicle
Source text: Peripheral blood mononuclear cells (PBMC) were isolated from bovine blood using ficoll gradients. Bovine monocytes were isolated from PBMC using magnetic assisted cell sorting to positively select for CD14+ cells using anti-human CD14 microbeads (Miltenyi Biotec). Purified bovine blood CD14+ monocytes were differentiated into macrophages using an M2-skewing differentiation factor (recombinant bovine M-CSF) over 7 days then exposed to CATH2 or a vehicle control in the presence of bovine casein to mimic aspects of the mammary gland for 24 hr. Following treatment, vehicle and drug were removed and cells were washed to eliminate residual drug and monocyte-derived macrophages were rested for 3 days in order to assess reprogramming. Following the rest period, a subset of vehicle- and CATH2-trained monocyte-derived macrophages were assessed for epigenetic and transcriptomic changes. The remaining cells were challenged with LPS or E. coli bioparticle labeled with pH-sensitive pHrodo green dye and key parameters for macrophage activation/immune response were assessed including glycolytic activity, surface marker expression, gene expression, cytokine production, phagocytosis, reactive nitrogen species production, and miRNA profiling.
Bovine monocyte-derived macrophages were lysed in Buffer RLT with addition of (3-mercaptoethanol (QIAGEN) and stored at −80° C. until miRNA/mRNA isolations could be performed. Total RNA including miRNA was isolated from cell lysates using the miRNeasy Tissues/Cells Advanced kit (QIAGEN) following the manufacturer's instructions. mRNA and miRNA libraries were prepared using the TruSeq Stranded mRNA Library Prep Kit (Illumina) and QIAseq miRNA Library Kit, respectively (QIAGEN) according to the manufacturer's instructions. Libraries were run on the Illumina NextSeq550 System. Sequencing data were analyzed using CLC Genomics Workbench software and QIAGEN Ingenuity Pathway Analysis (IPA).

[3] = 0 hrs_post_CATH2 (prior to CATH2 treatment)
[4] = 0 hrs_post_LPS (after CATH2 and 3-day rest)

RFGRFLRKIRRFRPKVTITIQGSARFG [CATH2, cathelicidin 2 peptide]
ChIP-Seq peaks with H3K27ac mark [1]: increased number of peaks with H3K27ac mark
CD14 and CD80 gene expression (RNA sequence data) ([2]; 8 hr following LPS stimulation, CATH2 vs vehicle): significantly upregulated
Number of significantly differentially expressed genes, P < 0.01 & |log2FC| > 1 [2, 3]: 0
Number of significantly differentially expressed genes, P < 0.05 & |log2FC| > 1 [2, 3]: 0
Number of significantly differentially expressed genes, Padj < 0.05 & |log2FC| > 0.585 [2, 3]: 0
Number of significantly differentially expressed genes, Padj < 0.05 & |log2FC| > 1 [2, 3]: 0
Number of significantly differentially expressed genes, Padj < 0.1 & |log2FC| > 1 [2, 3]: 0
Number of significantly differentially expressed genes, P < 0.01 & |log2FC| > 1 [2, 4]: 169
Number of significantly differentially expressed genes, P < 0.05 & |log2FC| > 1 [2, 4]: 244
Number of significantly differentially expressed genes, Padj < 0.05 & |log2FC| > 0.585 [2, 4]: 171
Number of significantly differentially expressed genes, Padj < 0.05 & |log2FC| > 1 [2, 4]: 96
Number of significantly differentially expressed genes, Padj < 0.1 & |log2FC| > 1 [2, 4]: 134
Number of significantly differentially expressed genes, P < 0.01 & |log2FC| > 1 ([2]; 8 hrs_post_CATH2): 6
Number of significantly differentially expressed genes, P < 0.05 & |log2FC| > 1 ([2]; 8 hrs_post_CATH2): 27
Number of significantly differentially expressed genes, Padj < 0.05 & |log2FC| > 0.585 ([2]; 8 hrs_post_CATH2): 0
Number of significantly differentially expressed genes, Padj < 0.05 & |log2FC| > 1 ([2]; 8 hrs_post_CATH2): 0
Number of significantly differentially expressed genes, Padj < 0.1 & |log2FC| > 1 ([2]; 8 hrs_post_CATH2): 0
Number of significantly differentially expressed genes, P < 0.01 & |log2FC| > 1 ([2]; 8 hrs_post_LPS): 509
Number of significantly differentially expressed genes, P < 0.05 & |log2FC| > 1 ([2]; 8 hrs_post_LPS): 593
Number of significantly differentially expressed genes, Padj < 0.05 & |log2FC| > 0.585 ([2]; 8 hrs_post_LPS): 962
Number of significantly differentially expressed genes, Padj < 0.05 & |log2FC| > 1 ([2]; 8 hrs_post_LPS): 479
Number of significantly differentially expressed genes, Padj < 0.1 & |log2FC| > 1 ([2]; 8 hrs_post_LPS): 532
Number of significantly differentially expressed genes, P < 0.01 & |log2FC| > 1 ([2]; 24 hrs_post_CATH2): 11
Number of significantly differentially expressed genes, P < 0.05 & |log2FC| > 1 ([2]; 24 hrs_post_CATH2): 28
Number of significantly differentially expressed genes, Padj < 0.05 & |log2FC| > 0.585 ([2]; 24 hrs_post_CATH2): 0
Number of significantly differentially expressed genes, Padj < 0.05 & |log2FC| > 1 ([2]; 24 hrs_post_CATH2): 0
Number of significantly differentially expressed genes, Padj < 0.1 & |log2FC| > 1 ([2]; 24 hrs_post_CATH2): 0
Number of significantly differentially expressed genes, P < 0.01 & |log2FC| > 1 ([2]; 24 hrs_post_LPS): 328
Number of significantly differentially expressed genes, P < 0.05 & |log2FC| > 1 ([2]; 24 hrs_post_LPS): 393
Number of significantly differentially expressed genes, Padj < 0.05 & |log2FC| > 0.585 ([2]; 24 hrs_post_LPS): 520
Number of significantly differentially expressed genes, Padj < 0.05 & |log2FC| > 1 ([2]; 24 hrs_post_LPS): 279
Number of significantly differentially expressed genes, Padj < 0.1 & |log2FC| > 1 ([2]; 24 hrs_post_LPS): 330
DEG related to Rho family signaling ([2]; CATH2 vs vehicle): downregulated
Type I interferon induced genes (e.g. ISG15, MX2, OAS2) ([2]; CATH2 vs vehicle): significantly upregulated
Immune response gene expression (IL1A/B, IL6, IL8, IL12, IL23, CCL2, NOS2, IL10) ([2]; pre- and post-LPS after CATH2 treatment and 3-day rest, vs vehicle): significantly upregulated
